Measurements reported in patent US8614179B2, “Antibacterial combination therapy for the treatment of gram positive bacterial infections” (E-Therapeutics PLC, priority 2008, dated 2013).
Where two headings read alike, the source gives them in different places.

Key:
[1] = tested on: Enterococcus faecium (VRE); experiment: microbe, parasite or virus in culture; format: cell-based
Experimental: (§1) In example experiments miconazole nitrate, econazole nitrate and clotrimazole were dissolved in DMSO. Colistin, D-cycloserine, fosfomycin and polymixin B were dissolved in water. Nisin was suspended at 10 mg/mL in 0.02 M HCl, and the supernatant fraction following centrifugation at 10,000 g for 10 mins was used in the following experiments.
(§2) Other solvents that may be used include caster oil, pyridine, and 0.9% saline. For IV administration agents may be solubilised in polyethoxylated caster oil, or cyclodextrins such as sulfobutylether7-βcyclodextrin or hydroxypropyl-β-cyclodextrin and lactic acid. Minimum inhibitory concentrations (MICs) of a range of clinical and control bacterial organisms were measured according to BSAC (British Society for Antimicrobial Chemotherapy) guidelines (Andrews 2001), for single agents. The method of determining MICs of imidazole with colistin, D-cycloserine, fosfomycin, polymixin B, or nisin is described briefly as follows. MICs were measured by agar dilution. Kill curves were performed in accordance with the methods of Garrison and Nuemiller, 2007. Briefly kill profiles were generated by logarithmically plotting mean CFU/mL data over time. Total logarithmic reductions in bacterial counts were determined by subtracting 24 h CFU/mL values from starting inocula.
(§3) Stock solutions were prepared at concentrations of 1000 mg/L and 100 mg/L. To determine the MIC of miconazole, the appropriate amount of each stock solution were added to separate Petri dishes give a range of final concentrations (after the addition of 20 mL molten agar): from 0.12 to 32 mg/L. To determine the MICs of miconazole with the specific agent active on a bacterial cell surface, these concentrations of miconazole were used in addition to a fixed sub-inhibitory amount of the agent active on a bacterial cell surface. […] Volumes (20 mL) of cooled molten IST agar (oxoid) was added to each Petri dish and mixed by swirling. After drying, the plates were stored at 4° C. and protected from light. Plates were used on the day of preparation.
(§4) The test organisms were grown overnight in 5 mL IST broth. Using a dilution in 0.9% saline of 1:100, the appropriate agar plates were inoculated using a multipoint inoculator.
(§5) Agar plates and microtitre plates were incubated at 37° C. in air for 18-20 hours.
(§6) The MIC is the minimum amount of an antibiotic at which there is no visible growth of bacteria. Tiny single colonies or faint hazes were not counted as growth. Synergy was reported if the inhibitory effect of the drugs in combination were greater than the sum of the inhibitory effects of each drug singly. The concentration of miconazole, with or without the cell membrane or cell wall active agent, capable of inhibiting the growth of 50% and 90% of the strains tested is reported as the MIC50 and MIC90 respectively. The range of MICs for each group of bacterial strains is also reported.

VISA = experiment: microbe, parasite or virus in culture; format: cell-based; conditions: Staphylococcus aureus
Experimental: as §1, §2, §3, §4, §5, §6

[2] = tested on: Staphylococcus epidermidis; experiment: MIC by agar dilution, Staphylococcus epidermidis; format: cell-based
Experimental: as §2, §3
(§7) The test organisms were grown overnight in 5 mL IST broth. Using a dilution in 0.9% saline of 1:100, the appropriate agar plates were inoculated using a multipoint inoculator. […]
(§8) The MIC is the minimum amount of an antibiotic at which there is no visible growth of bacteria. Tiny single colonies or faint hazes were not counted as growth. […]

[3] = tested on: Enterococcus faecalis (VRE); experiment: MIC by agar dilution, Enterococcus faecalis (VRE); format: cell-based
Experimental: as §2, §3, §7, §8

Escherichia coli = experiment: MIC by agar dilution, Escherichia coli; format: cell-based
Experimental: as §2, §3, §7, §8

Pseudomonas aeruginosa = experiment: MIC by agar dilution, Pseudomonas aeruginosa; format: cell-based
Experimental: as §2, §3, §7, §8

[4] = in vivo, cited from earlier work
MRSA AND VRE = experiment: MIC by agar dilution, MIC50/MIC90/range over MRSA and VRE strain panel; format: cell-based, Staphylococcus aureus; Enterococci
Experimental: In example experiments miconazole nitrate, econazole nitrate and clotrimazole were dissolved in DMSO. Colistin, D-cycloserine, fosfomycin and polymixin B were dissolved in water.
as §2, with “The method of determining MICs of imidazole with colistin, D-cycloserine, fosfomycin, polymixin B, or nisin is described briefly as follows.” left out
as §3, §7
as §6, with “Synergy was reported if the inhibitory effect of the drugs in combination were greater than the sum of the inhibitory effects of each drug singly.” left out

[5] = ATCC 4147 / VRE, Table 2, strain E15 VanA ATCC 4147, read-out: MIC
[6] = NCTC 7171 / VRE, Table 2, strain NCTC 7171, read-out: MIC
[7] = VRE, Table 2, strain E19 UAA/522 VanB, read-out: MIC
[8] = VRE, Table 2, strain VanR B145344C LFE, read-out: MIC
[9] = Table 2, strain USA/VISA 5827, read-out: MIC
[10] = Table 2, strain USA/VISA 5836, read-out: MIC
[11] = Table 2, strain VISA 3900 UK, read-out: MIC

c1ccc(-c2ccc(C(c3ccccc3)n3ccnc3)cc2)cc1 (stereo not drawn) [Bifonazole]
> 128 µg/mL: MIC [1, 5] | MIC [1, 6] | MIC [1, 7] | MIC [1, 8] | MIC (VISA; [9]) | MIC (VISA; [10]) | MIC (VISA; [11]) | MIC ([2]; ATCC1228, Table 2, strain ATCC 1228, read-out: MIC) | MIC ([3]; Table 2, strain E8 VanA, read-out: MIC) | MIC (Escherichia coli; NCTC10418, Table 2, strain NCTC 10418, read-out: MIC) | MIC (Pseudomonas aeruginosa; NCTC10662, Table 2, strain NCTC 10662, read-out: MIC)

Clc1ccccc1C(c1ccccc1)(c1ccccc1)n1ccnc1 [Clotrimazole, 1-[(2-Chlorophenyl)diphenylmethyl]-1H-imidazole]
around 3 hours: half-life ([4]; human, po)
well absorbed: absorption following oral administration [4]

N[C@@H]1CONC1=O [D-cycloserine]
no inhibitory effect: inhibitory effect on the growth of the bacterial strains tested (MRSA AND VRE; D-cycloserine alone at 10 mg/L)

OC(Cn1cncn1)(Cn1cncn1)c1ccc(F)cc1F [Fluconazole]
> 128 µg/mL: MIC ([1]; ATCC 4147 / VRE, Table 2, strain E15 VanA ATCC 4147) | MIC ([1]; NCTC 7171 / VRE, Table 2, strain NCTC 7171) | MIC ([1]; VRE, Table 2, strain E19 UAA/522 VanB) | MIC ([1]; VRE, Table 2, strain VanR B145344C LFE) | MIC (VISA; Table 2, strain USA/VISA 5827) | MIC (VISA; Table 2, strain USA/VISA 5836) | MIC (VISA; Table 2, strain VISA 3900 UK) | MIC ([2]; ATCC1228) | MIC [3] | MIC (Escherichia coli; NCTC10418) | MIC (Pseudomonas aeruginosa; NCTC10662)

CC(=O)N1CCN(c2ccc(OCC3COC(Cn4ccnc4)(c4ccc(Cl)cc4Cl)O3)cc2)CC1 (stereo not drawn) [Ketoconazole]
128 µg/mL: MIC [1, 6] | MIC [1, 7] | MIC [1, 8]
16 µg/mL: MIC [1, 5]
64 µg/mL: MIC (VISA; [9]) | MIC (VISA; [10]) | MIC (VISA; [11]) | MIC ([2]; ATCC1228)
> 256 µg/mL: MIC [3] | MIC (Escherichia coli; NCTC10418) | MIC (Pseudomonas aeruginosa; NCTC10662)

C[C@@H]1O[C@@H]1P(=O)(O)O [fosfomycin]
no inhibitory effect: inhibitory effect on the growth of the bacterial strains tested (MRSA AND VRE; fosfomycin alone at 5 mg/L)

colistin
no inhibitory effect: inhibitory effect on the growth of the bacterial strains tested (MRSA AND VRE; colistin alone at 5 mg/L)

polymixin B
no inhibitory effect: inhibitory effect on the growth of the bacterial strains tested (MRSA AND VRE; polymixin B alone at 20 mg/L)
